# From article PMC7473840, “Identification of a molecular locus for normalizing dysregulated GABA release from interneurons in the Fragile X brain” (Molecular Psychiatry, 2018)
# “Also recorded” adds a separate entry of the source. Where two headings read alike, the source gives them in different places. Non-standard residues stand in square brackets, D forms with d. Residues, ends and D or L forms follow the SMILES beside them. pS = N[C@@H](COP(=O)(O)O)C(=O)O
# Tests used:
# [1] = test system: PNs, Fmr1-KO cerebellar slices; assay: Spontaneous firing of PNs, cell-attached, Fmr1-KO; assay type: cell-based, mouse; settings: 10 μM, co-applied with NBQX (10 μM); Fmr1-KO compared with WT
# [2] = test system: PNs, WT and Fmr1-KO cerebellar slices; assay type: cell-based, mouse
# BC–PN synapse, WT = assay: sIPSCs from PNs, paired BC–PN recording, WT synapses; assay type: cell-based, mouse; settings: peptide 2.5 mM infused into WT BCs, before and 20 min after; n = 5-6
# [3] = biological target: T1, recombinant full-length FMRP (isoform 1) (Homo sapiens, UniProt Q06787); assay: In vitro intrinsic protein fluorescence binding assay; settings: for change of fluorescence emission spectrum of FMRP (binding): 500–1000 μM peptide and 1 μM FMRP, 100 mM NaCl, 50 mM Na2PO4 pH 7.4, 2 mM DTT, 20 °C, excitation 287 nm; for co-operativity of binding to dimeric FMRP: fit of binding data to dimer models; for Kd: 1 μM FMRP, pH 7.4, 20 °C
# T1 construct: containing cDNA for full-length human FMRP; His-SUMO (N, cleaved yes); made in house; host or cells: Escherichia coli BL21 (DE3) Codon Plus
# Experimental: Small Ubiquitin-like Modifier (SUMO) fusion construct containing cDNA for full-length human FMRP was generated by gene synthesis (GenScript USA Inc.) and subcloned into a pET SUMO vector (Invitrogen). […] The pET SUMO–FMRP construct was transformed into Escherichia coli BL21 (DE3) Codon Plus cells and grown at 37 °C in Lennox broth medium. Protein expression was induced with 0.5 mM isopropyl-β-D-thiogalactopyranoside when optical density reached ~0.6, followed by 18 h of additional growth at 16 °C. Cells were harvested by centrifugation and pellets stored at −20 °C. In order to purify SUMO–FMRP, thawed pellets were resuspended in lysis buffer [50 mM Tris, pH 8.0, 500 mM NaCl, 20 mM imidazole, 10% glycerol, 250 mM arginine, 5 mM benzamidine, and 2 mM dithiothreitol (DTT)], supplemented with DNAse 1 and cOmplete™ Protease Inhibitor Cocktail (Sigma-Aldrich). After cell lysis and centrifugation, the filtered supernatant was loaded onto a 20 ml NiNTA column equilibrated in the same lysis buffer. The column was extensively washed with 20 column volumes (CV) of the same buffer supplemented with 100 mM imidazole. Elution of SUMO-fusion FMRP was performed using 100–500 mM imidazole gradient, and protein-containing fractions were combined and a 6× His tagged Ulp protease was added. Cleavage of the His-SUMO tag was performed overnight in a cold room (7 °C) while dialyzing in 4 L of 50 mM Tris, pH 8.0, 500 mM NaCl, 50 mM imidazole, 10% glycerol, 250 mM arginine, 5 mM benzamidine, and 2 mM DTT. Complete cleavage of the SUMO tag by Ulp was confirmed by SDS-PAGE and the protein of interest was separated from the Ulp protease and SUMO tag by passing the cleavage reaction over a second NiNTA column. Flow-through and wash fractions containing protein of interest were combined and then loaded onto a Superdex 200 gel filtration column pre-equilibrated with the same lysis buffer.
# The eluted purified proteins were analyzed by both SDS-PAGE and mass spectrometry, and the combined fractions were dialyzed three times in 5 L of Fluorescence Binding Buffer (100 mM NaCl, 50 mM Na2PO4 pH 7.4, 2 mM DTT). After filtering through a 0.22 μm GV Durapore Centrifugal Filter Unit (Millipore), FMRP concentration was determined by absorbance at 280 nm using a molar extinction coefficient of 48,360 M^−1 cm^−1, and the protein was used for binding studies with Kv1.2 C-terminal peptides.
# All measurements were carried out in the Fluorescence Binding Buffer at 20 °C using a PTI Quanta Master 80 Spectrofluorometer (HORIBA Scientific) by monitoring intrinsic protein fluorescence with an excitation wavelength of 287 nm. Prior to performing a binding titration for any of the peptides, a full emission spectrum (300–450 nm) of the peptide:FMRP complex was compared to that of apo-FMRP. Differences in the spectrum of the complex (500–1000 μM peptide and 1 μM FMRP) and apo-FMRP at the same concentration (i.e., fluorescence quenching, enhancement or shifts of the emission maximum) indicated binding. For each of these peptides, binding measurements were performed by adding aliquots of saturated 1 µM FMRP:peptide complex (titration solution) to 400 μL of 1 μM apo-FMRP solution as described by Wells and Di Cera. Briefly, at each titration step, a volume vD was removed from the cuvette containing the apo-FMRP and replaced by an equal volume of the titration solution (1 μM FMRP: 200–500 μM peptide complex). As a result, the concentration of FMRP (1 μM) and total volume of solution in the cuvette, V = 400 μL, remained constant while the concentration of the peptide at the ith titration step, [peptide]i, was increased, and given by
# [peptide]i = [peptide]0^i.D^i+[peptide]∞^i.(1 − D^i),
# where, [peptide]0 was the initial peptide concentration in the cuvette, [peptide]∞ was the peptide concentration in the titration solution, and D was the dilution factor, D = (V − vD)/V. […]
# [4] = test system: Kv1.2–FMRP interaction, cerebellar homogenates; assay: Co-IP of Kv1.2 with FMRP (anti-FMRP antibody), peptide blocking; assay type: binding; settings: WT mouse cerebellar homogenates; 250 μM peptide added prior to anti-FMRP antibody; immunoblot; at least in triplicate
# Experimental: Whole cerebellums from WT and Fmr1 KO mice were homogenized in ice-cold Pull-Down buffer (1% Lubrol, 50 mM Tris–HCl, pH 7.4, 10 nM Na-orthovanadate, 30 mM Na-pyrophosphate, 50 mM NaF, 20 μm ZnCl2, and 0.25 mM PMSF, with the addition of protease inhibitor cocktail) using a Potter-Elvehjem grinding chamber (VWR). Samples were then centrifuged at 5000g for 20 min and 500 μL of supernatants were transferred into 1.5 ml Eppendorf tubes. 1:100 dilutions of anti-FMRP (Abcam 17722), anti-Kv1.2 (K14/16; Neuromab), anti-Kv1.2 ext-c (extracellular; Alomone labs), anti-Kv1.2 N-term (NBP1-42802; Novus), or anti-GAPDH (GAPDH-71.1; 1:80,000; Sigma-Aldrich) antibodies were added to the homogenate and incubated at 4 °C under continuous agitation for 2 h. A total 30 μL of a 1:1 mixture of pre-washed protein A and protein G magnabeads (Genscript) was then added and the samples were incubated under the same conditions for another 2 h. Beads were washed 4 times with PBS-Tween (0.2% Tween w/v) and then centrifuged at 3000g for 1 min. A sample was kept to verify total protein input. Protein was disassociated from the beads with the addition of 30 μL of 2× loading buffer (4% SDS, 20% glycerol w/v, 0.1 M dithiothreitol, 100 mM Tris–HCl, pH 6.8) then submitting the samples to 3 min at 95 °C. […] Bands were quantified as previously described using the AlphaEase SA software. […]
compound,measurement,setting,value
CN1CCc2cc3c(cc2[C@H]1[C@@H]1OC(=O)c2c1ccc1c2OCO1)OCO3 [bicuculline],difference in PN firing rates between WT and KO,[1],the differences in PN firing rates were abolished
same,elimination of IPSC events,"[2]; 10 μM, holding −60 mV",eliminated all the events
IKPSTLSDSRAKpSSDPpSKPSIK [scrambled],amplitude and frequency of sIPSCs,"BC–PN synapse, WT","but not the non-phosphorylated or scrambled phosphorylated peptide, significantly elevated the amplitude and frequency of sIPSCs"
same,change of fluorescence emission spectrum of FMRP (binding),[3],no change in the fluorescence emission spectrum of FMRP
same,change of fluorescence emission spectrum of FMRP (binding),[3]; listed as doubly-phosphorylated scrambled peptide,no binding
same,inhibition of Kv1.2–FMRP binding (co-IP),[4],"Neither the non-phosphorylated peptide with the identical sequence (Kv436-457, ^436PKIPSSPDLKKSRSASTISKSD^457) nor the doubly-phosphorylated scrambled peptide (IKPSTLSDSRAKpSSDPpSKPSIK) inhibited the Kv1.2–FMRP binding activity"
CC[C@H](C)[C@H](NC(=O)[C@@H](NC(=O)[C@H](CO)NC(=O)[C@H](C)NC(=O)[C@H](CO)NC(=O)[C@H](CCCNC(=N)N)NC(=O)[C@H](CO)NC(=O)[C@H](CCCCN)NC(=O)[C@H](CCCCN)NC(=O)[C@H](CC(C)C)NC(=O)[C@H](CC(=O)O)NC(=O)[C@@H]1CCCN1C(=O)[C@H](CO)NC(=O)[C@H](COP(=O)(O)O)NC(=O)[C@@H]1CCCN1C(=O)[C@@H](NC(=O)[C@H](CCCCN)NC(=O)[C@@H]1CCCN1)[C@@H](C)CC)[C@@H](C)O)C(=O)N[C@@H](CO)C(=O)N[C@@H](CCCCN)C(=O)N[C@@H](CO)C(=O)N[C@@H](CC(=O)O)C(=O)O [pS440] (H-PKIP[pS]SPDLKKSRSASTISKSD-OH; N-terminus and C-terminus assumed),change of fluorescence emission spectrum of FMRP (binding),[3],significant spectral changes; also recorded: phosphorylation-mediated interaction
same,co-operativity of binding to dimeric FMRP,[3],with cooperativity; also recorded: binds dimeric FMRP in a co-operative mechanism
same,"reduced χ2 of fit, model D1",[3],11.6
same,"χ2 of fit, model D1",[3],92.8
same,enhancement of binding affinity of second ligand by binding of the first,[3]; model D2c,~ 80 fold
same,"reduced χ2 of fit, model D2c",[3]; model D2c,0.16
same,"χ2 of fit, model D2c",[3]; model D2c,0.99
same,"reduced χ2 of fit, model D2i",[3],2.3
same,"χ2 of fit, model D2i",[3],16.4
"NC1=N[C@H](O)[C@H]2[C@H]3O[C@]4(O)O[C@@H]([C@@H](O)[C@@]2(N1)[C@@H]4O)[C@]3(O)CO [TTX, tetrodotoxin]","amplitude and frequency of mIPSCs, WT versus KO",[2],the amplitude and frequency of mIPSCs became indistinguishable between the two groups
CC[C@H](C)[C@H](NC(=O)[C@@H](NC(=O)[C@H](CO)NC(=O)[C@H](C)NC(=O)[C@H](CO)NC(=O)[C@H](CCCNC(=N)N)NC(=O)[C@H](CO)NC(=O)[C@H](CCCCN)NC(=O)[C@H](CCCCN)NC(=O)[C@H](CC(C)C)NC(=O)[C@H](CC(=O)O)NC(=O)[C@@H]1CCCN1C(=O)[C@H](COP(=O)(O)O)NC(=O)[C@H](COP(=O)(O)O)NC(=O)[C@@H]1CCCN1C(=O)[C@@H](NC(=O)[C@H](CCCCN)NC(=O)[C@@H]1CCCN1)[C@@H](C)CC)[C@@H](C)O)C(=O)N[C@@H](CO)C(=O)N[C@@H](CCCCN)C(=O)N[C@@H](CO)C(=O)N[C@@H](CC(=O)O)C(=O)O [PhosKv436-457] (H-PKIP[pS][pS]PDLKKSRSASTISKSD-OH),Kd,"[3]; model D1: dimer with one binding site, read-out: KD1, model D1",10.1 ± 4.4 µM
same,Kd,"[3]; model D2i: dimer with two independent binding sites, read-out: KD1, model D2i",1.08 ± 0.26 µM
CC[C@H](C)[C@H](NC(=O)[C@@H](NC(=O)[C@H](CO)NC(=O)[C@H](C)NC(=O)[C@H](CO)NC(=O)[C@H](CCCNC(=N)N)NC(=O)[C@H](CO)NC(=O)[C@H](CCCCN)NC(=O)[C@H](CCCCN)NC(=O)[C@H](CC(C)C)NC(=O)[C@H](CC(=O)O)NC(=O)[C@@H]1CCCN1C(=O)[C@H](COP(=O)(O)O)NC(=O)[C@H](CO)NC(=O)[C@@H]1CCCN1C(=O)[C@@H](NC(=O)[C@H](CCCCN)NC(=O)[C@@H]1CCCN1)[C@@H](C)CC)[C@@H](C)O)C(=O)N[C@@H](CO)C(=O)N[C@@H](CCCCN)C(=O)N[C@@H](CO)C(=O)N[C@@H](CC(=O)O)C(=O)O [pS441] (H-PKIPS[pS]PDLKKSRSASTISKSD-OH; N-terminus and C-terminus assumed),change of fluorescence emission spectrum of FMRP (binding),[3],significant spectral changes; also recorded: phosphorylation-mediated interaction
same,binding affinity relative to the other phospho-peptides,[3]; FMRP dimer models,did bind with similar affinities
same,co-operativity of binding to dimeric FMRP,[3],without cooperativity; also recorded: did not produce co-operative binding effects
same,"reduced χ2 of fit, model D1",[3],10
same,"χ2 of fit, model D1",[3],106
same,fit to D2c model,[3]; model D2c,could not be fitted to the D2c model
same,"reduced χ2 of fit, model D2i",[3],11
same,"χ2 of fit, model D2i",[3],107
same,KD tighter than the KD1 of pS440,[3]; models D1 and D2i versus KD1 of pS440 (D2c),~ 5 fold
same,KD weaker than the KD2 of pS440,[3]; models D1 and D2i versus KD2 of pS440 (D2c),~ 15 fold
